Measured values: ChEMBL document CHEMBL1201862, “PubChem BioAssay data set” (2004)
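Five concentrations, 48 hours, 96-well plates. GI50 marks 50% less growth.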 Activity calls are given as the source filed them. Rule as the data show it: active = GI50 up to about 1.1 µM and inactive = higher.

What was measured:
Assay in all cases: NCI-60 cell line screen, 48 h
786-0 = test system: 786-0
A549 = test system: A549
CAKI-1 = test system: CAKI-1
CCRF-CEM = test system: CCRF-CEM
HCT-116 = test system: HCT-116
HL-60 = test system: HL-60
HOP-92 = test system: HOP-92
Hs-578T = test system: Hs-578T
IGROV-1 = test system: IGROV-1
MDA-N = test system: MDA-N
NCI/ADR-RES = test system: NCI/ADR-RES
OVCAR-3 = test system: OVCAR-3
OVCAR-8 = test system: OVCAR-8
PC-3 = test system: PC-3
SF-295 = test system: SF-295
SF-539 = test system: SF-539
SK-MEL-5 = test system: SK-MEL-5
SN12C = test system: SN12C
UACC-257 = test system: UACC-257
UACC-62 = test system: UACC-62

Measured: GI50

S=C1Cc2c([nH]c3ccccc23)-c2ccccc2N1
inactive: 786-0 31.3 µM | A549 23 µM | CAKI-1 23.3 µM | CCRF-CEM > 100 µM | HCT-116 25.1 µM | HL-60 > 100 µM | HOP-92 32.3 µM | Hs-578T 61 µM | IGROV-1 65.3 µM | MDA-N 96.8 µM | NCI/ADR-RES 50 µM | OVCAR-3 32.6 µM | OVCAR-8 38.3 µM | PC-3 21.5 µM | SF-295 98.6 µM | SF-539 43.6 µM | SK-MEL-5 42 µM | SN12C 38.6 µM | UACC-257 55 µM | UACC-62 72.3 µM

COc1cccc2c1C(=O)OC2c1cccc2ccccc12 (stereo not given)
inactive: 786-0 50.8 µM | A549 > 100 µM | CAKI-1 > 100 µM | CCRF-CEM > 100 µM | HCT-116 > 96.6 µM | HL-60 > 46.6 µM | HOP-92 30.9 µM | Hs-578T 33 µM | IGROV-1 > 100 µM | MDA-N > 100 µM | NCI/ADR-RES 53.3 µM | OVCAR-3 74.8 µM | OVCAR-8 56.4 µM | PC-3 > 100 µM | SF-295 33.6 µM | SF-539 63.7 µM | SK-MEL-5 > 100 µM | SN12C > 100 µM | UACC-257 > 91 µM | UACC-62 > 100 µM
